Assay type in all cases: physicochemical
A short description of data set [1]: Hygroscopicity of pomalidomide Form A (DVS). Here is the method:
Pomalidomide Polymorph Preparations: A weighed sample of pomalidomide (about 100 mg) was treated with 2 mL of a test solvent. The solvents used were either reagent or HPLC grade. The resulting mixture was agitated for at least 24 hours at 25°C. When all of the solids were dissolved by visual inspection, the estimated solubilities were calculated. The solubility was estimated from these experiments based on the total volume of solvent used to give a solution. The actual solubility may be greater than those calculated due to the use of a large amount of solvent or to a slow rate of dissolution. […] A known volume of filtrate was evaporated to dryness and the weight of the residue was measured. Equilibration and evaporation experiments were carried out by adding an excess of pomalidomide to 4 mL of a test solvent. The resulting mixture was agitated for at least 24 hours at 25°C and 50°C separately. […] All of the samples generated as described in the polymorph preparation study were analyzed by XRPD. […] Diffracted radiation was detected by peitier-cooled Si(Li) solid state detector. […] Approximately 2-5 mg of sample was placed into a DSC pan and the weight was accurately recorded. […] Hygroscopicity was determined on a Surface Measurement Systems DVS. Typically a sample size of 10-50 mg was loaded into the DVS instrument sample pan and the sample was analyzed on a DVS automated sorption analyzer at 25°C. […]

A short description of data set [2]: Stability of pomalidomide Form A. On the procedure:
(§1) Hygroscopicity: Dynamic vapor sorption (DVS) analysis was carried out for two preparations of Form A using Surface Measurement Systems DVS. Representative DVS isotherm plots are presented in Figure 23 of WO2013/126326 and Figure 24 of WO2013/126326. In one study, the moisture uptake was less than about 0.14 % (wv'w) up to 95% relative humidity, indicative that pomalidomide Form A is not hygroscopic. […] At the end of desorption, the sample lost all of the weight it gained during the process of moisture sorption. […] The X-ray powder diffractograms are shown in Figure 25 and Figure 26 of WO2013/126326. […] The physical properties of the exposed form A were unchanged as compared to at the start of the study. Form A also appeared to be stable in acetone, acetonitrile, ethanol, ethyl acetate, methyl ethyl ketone, THF, toluene, ethanoi-water (1 : 1) or water at 40°C for at least 4 weeks. Compression Test: A compression test for Form A was carried out by applying 2000-psi pressure to the sample for 1 minute and then analyzing the sample by XRPD. […] Particle Size Distribution: In some embodiments, Form A was prepared as a white, irregular plate crystalline with a particle size D90 < 12 ? . Particle size distribution was determined for various lots of pomalidomide. Table 15: Particle Size Data for Pomalidomide Lots

A short description of data set [3]: Compression test of pomalidomide Form A. As to conditions: 2000-psi pressure for 1 minute. On the procedure: as §1

Consider `Nc1cccc2c1C(=O)N(C1CCC(=O)NC1=O)C2=O` (centres unmarked) [pomalidomide Form A, 4-amino-2-(2,6-dioxopiperidine-3-yl)isoindoline-1,3-dione], for which the “mass change over the dry mass” value in data set [1] (relative humidity increased from 0 to 95%, another study) is reported as “less than 0.11%”. Besides, in data set [1] (up to 95% relative humidity, one study), the moisture uptake entry is on record as “less than 0.14 % (wv'w)”. For the same compound, the “physical properties after exposure” value in data set [2] (40°C/75% RH environment for four weeks) is “unchanged”. In data set [2] (acetone, acetonitrile, ethanol, ethyl acetate, methyl ethyl ketone, THF, toluene, ethanol-water (1:1) or water at 40°C), the “time stable in solvent” value was “at least 4 weeks”. In data set [3], the “XRPD pattern after compression” value is “unchanged”.

The record behind these values is patent EP2815749A1, “Solid form of 4-amino-2-(2,6-dioxopiperidine-3-yl)isoindoline-1,3-dione having specified X-ray diffraction pattern” (IP Gesellschaft für Management mbH, priority 2013, dated 2014).
